This passage reports MIC99 results from patent US20020004220A1 (priority 1999, published 2002).

SMILES strings stand for the structures. In brackets after ≈: the same amount, converted by molar mass.

Test [1] concerns Staphylococcus aureus. The experiment in a line: microbe, parasite or virus in culture. Format: cell-based. The note with it: read-out: MIC (MIC99).
Test [2] has as its system Escherichia coli. Description: microbe, parasite or virus in culture. Type of test: cell-based. The following applies: read-out: MIC (MIC99).

As for `O=C(N[C@H](CO)[C@H](O)c1ccc([N+](=O)[O-])cc1)C(Cl)Cl` [Chloramphenicol], the MIC99 in test [1] and in test [2] was 1.9 µg/mL (≈ 5.88 µM) each time.

As to `CCn1cc(C(=O)O)c(=O)c2cc(F)c(N3CCNCC3)cc21` [Norfloxacin], the MIC99 turned out to be 0.85 µg/mL (≈ 2.66 µM) in test [1] and 0.045 µg/mL (≈ 0.141 µM) in test [2].

Take `CC1(C)S[C@@H]2[C@H](NC(=O)Cc3ccccc3)C(=O)N2[C@H]1C(=O)O` [Penicillin]: the MIC99 in test [1] came out at 0.024 µg/mL (≈ 0.0718 µM); in test [2], 3 µg/mL (≈ 8.97 µM).

With `CO[C@H]1/C=C/O[C@@]2(C)Oc3c(C)c(O)c4c(O)c(c(/C=N/N5CCN(C)CC5)c(O)c4c3C2=O)NC(=O)/C(C)=C\C=C\[C@H](C)[C@H](O)[C@@H](C)[C@@H](O)[C@@H](C)[C@H](OC(C)=O)[C@@H]1C` [Rifampicin], the values for the MIC99 in test [1] and in test [2] were 0.004 µg/mL (≈ 0.00486 µM) and 5 µg/mL (≈ 6.08 µM), respectively.

`NC[C@H]1O[C@H](O[C@H]2[C@H](O)[C@@H](O[C@H]3O[C@H](CO)[C@@H](O)[C@H](N)[C@H]3O)[C@H](N)C[C@@H]2N)[C@H](N)C[C@@H]1O` [Tobramycin]: the results for the MIC99 in test [1] and in test [2] were 0.27 µg/mL (≈ 0.578 µM) and 1.2 µg/mL (≈ 2.57 µM), respectively.

With `CN[C@H](CC(C)C)C(=O)N[C@H]1C(=O)N[C@@H](CC(N)=O)C(=O)N[C@H]2C(=O)N[C@H]3C(=O)N[C@H](C(=O)N[C@H](C(=O)O)c4cc(O)cc(O)c4-c4cc3ccc4O)[C@H](O)c3ccc(c(Cl)c3)Oc3cc2cc(c3O[C@@H]2O[C@H](CO)[C@@H](O)[C@H](O)[C@H]2O[C@H]2C[C@](C)(N)[C@H](O)[C@H](C)O2)Oc2ccc(cc2Cl)[C@H]1O` [Vancomycin], the MIC99 in test [1] stood at 0.65 µg/mL (≈ 0.449 µM).
